According to the supplement of paper PMC10307832:

The cell lines below were run with O=C(O)C(Cc1ccccc1[N+](=O)[O-])=NNc1nc(-c2ccc(Cl)c(Cl)c2)cs1 (mixture of isomers) [4EGI-1] + Cc1cc(Nc2cc(N3CCN(C)CC3)nc(Sc3ccc(NC(=O)C4CC4)cc3)n2)n[nH]1 [Tozasertib] (partner 0.1 µM) (assay: relative viability (nuclei count vs DMSO), 5 days (fraction); higher = more cells survive). Details: first compound 0.5 µM.
Outline: (§1)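 Cells from lung cancer lines were seeded into 1536-well plates and, one day later, dosed by pin tool. Treatments were either a single drug or a fixed dose of an anchor drug with five library-drug doses (not always all listed) in √10 steps. After 5 days, nuclei were stained in a one-step fixation (final 0.05% Triton X-100, 1% formaldehyde, 1 ug/ml Hoechst) and counted on 4× images, and relative viability is the treated-to-vehicle nuclei ratio, as the median of duplicate plates.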

Going from RERF-LC-KJ to SK-LU-1, the relative viability falls from 0.547 to 0.374.

Compared with SK-MES-1, SW 900 is lower in relative viability: 0.894 for the first, 0.688 for the second.

Going from SW 1573 to UMC-11, the relative viability rises from 0.176 to 0.192.

Same assay, conditions: first compound 1.581 µM

Compared with SK-LU-1, SK-MES-1 is higher in relative viability: 0.335 for the first, 0.596 for the second.

Compared with SW 1573, UMC-11 is higher in relative viability: 0.188 for the first, 0.198 for the second.

Same assay, conditions: first compound 5 µM

Going from RERF-LC-KJ to SK-LU-1, the relative viability falls from 0.425 to 0.381.

Going from SK-MES-1 to SW 900, the relative viability falls from 0.925 to 0.551.

Compared with SW 1573, UMC-11 is higher in relative viability: 0.149 for the first, 0.203 for the second.

Same assay, conditions: first compound 15.81 µM

Compared with RERF-LC-KJ, SK-LU-1 is lower in relative viability: 0.363 for the first, 0.259 for the second.

First: SK-MES-1
Second: SW 900
The relative viability of the first is higher: 0.699 for the first, 0.459 for the second.

Going from SW 1573 to UMC-11, the relative viability rises from 0.172 to 0.201.

Same assay, conditions: first compound 50 µM

Going from RERF-LC-KJ to SK-LU-1, the relative viability rises from 0.216 to 0.227.

Compared with SK-MES-1, SW 900 is higher in relative viability: 0.234 for the first, 0.291 for the second.

Going from SW 1573 to UMC-11, the relative viability rises from 0.102 to 0.21.

Each cell line was assayed with CN1CCN(CC1)C2=CC(=C(C=C2)NC3=NC=C4C(=N3)N(C5=CC=CC=C5C(=O)N4C)C)OC [XMD8-85] + CCNC(=O)c1noc(-c2cc(C(C)C)c(O)cc2O)c1-c1ccc(CN2CCOCC2)cc1 [Luminespib] (partner 0.01 µM) in the same assay as above. Details: first compound 0.08 µM.
Outline: as §1

Compared with RERF-LC-KJ, SK-LU-1 is lower in relative viability: 1.32 for the first, 0.193 for the second.

Going from SK-MES-1 to SW 900, the relative viability falls from 0.823 to 0.164.

Compared with SW 1573, UMC-11 is higher in relative viability: 0.276 for the first, 0.972 for the second.

Same assay, conditions: first compound 0.253 µM

Compared with RERF-LC-KJ, SK-LU-1 is lower in relative viability: 1.14 for the first, 0.207 for the second.

Compared with SK-MES-1, SW 900 is lower in relative viability: 0.768 for the first, 0.195 for the second.

Going from SW 1573 to UMC-11, the relative viability rises from 0.189 to 1.01.

Same assay, conditions: first compound 0.8 µM

Compared with RERF-LC-KJ, SK-LU-1 is lower in relative viability: 1.3 for the first, 0.207 for the second.

Compared with SK-MES-1, SW 900 is lower in relative viability: 0.779 for the first, 0.175 for the second.

Going from SW 1573 to UMC-11, the relative viability rises from 0.183 to 1.08.

Same assay, conditions: first compound 2.53 µM

Going from RERF-LC-KJ to SK-LU-1, the relative viability falls from 1.1 to 0.191.

Compared with SK-MES-1, SW 900 is lower in relative viability: 0.655 for the first, 0.165 for the second.

Going from SW 1573 to UMC-11, the relative viability rises from 0.172 to 0.941.

Same assay, conditions: first compound 8 µM

Compared with RERF-LC-KJ, SK-LU-1 is lower in relative viability: 0.779 for the first, 0.165 for the second.

Compared with SK-MES-1, SW 900 is lower in relative viability: 0.409 for the first, 0.152 for the second.

First: SW 1573
Second: UMC-11
The relative viability of the first is lower: 0.175 for the first, 0.671 for the second.

These cell lines were tested with CN1CCN(CC1)C2=CC(=C(C=C2)NC3=NC=C4C(=N3)N(C5=CC=CC=C5C(=O)N4C)C)OC [XMD8-85] + Cc1nc(Nc2ncc(C(=O)Nc3c(C)cccc3Cl)s2)cc(N2CCN(CCO)CC2)n1 [Dasatinib] (partner 0.075 µM) in the same assay as above. Details: first compound 0.08 µM.
Outline: as §1

Compared with RERF-LC-KJ, SK-LU-1 is lower in relative viability: 0.939 for the first, 0.135 for the second.

Going from SK-MES-1 to SW 900, the relative viability rises from 0.296 to 0.615.

Going from SW 1573 to UMC-11, the relative viability falls from 0.466 to 0.418.

Same assay, conditions: first compound 0.253 µM

Going from RERF-LC-KJ to SK-LU-1, the relative viability falls from 0.743 to 0.183.

First: SK-MES-1
Second: SW 900
The relative viability of the first is lower: 0.366 for the first, 0.608 for the second.

Going from SW 1573 to UMC-11, the relative viability rises from 0.364 to 0.437.

Same assay, conditions: first compound 0.8 µM

Going from RERF-LC-KJ to SK-LU-1, the relative viability falls from 0.816 to 0.208.

Compared with SK-MES-1, SW 900 is higher in relative viability: 0.44 for the first, 0.641 for the second.

First: SW 1573
Second: UMC-11
The relative viability of the first is lower: 0.393 for the first, 0.556 for the second.

Same assay, conditions: first compound 2.53 µM

Going from RERF-LC-KJ to SK-LU-1, the relative viability falls from 0.858 to 0.172.

First: SW 900
Second: SW 1573
The relative viability of the first is higher: 0.549 for the first, 0.499 for the second.

Cell Line UMC-11 has a relative viability of 0.512.

Same assay, conditions: first compound 8 µM

Going from RERF-LC-KJ to SK-LU-1, the relative viability falls from 0.574 to 0.179.

Compared with SK-MES-1, SW 900 is higher in relative viability: 0.255 for the first, 0.417 for the second.

Going from SW 1573 to UMC-11, the relative viability falls from 0.343 to 0.335.

What follows are cell lines tested with CN1CCN(CC1)C2=CC(=C(C=C2)NC3=NC=C4C(=N3)N(C5=CC=CC=C5C(=O)N4C)C)OC [XMD8-85] + O=C(CCCCCCC(=O)Nc1ccccc1)NO [Vorinostat] (partner 1 µM) in the same assay as above. Details: first compound 0.08 µM.
Outline: as §1

Compared with RERF-LC-KJ, SK-MES-1 is higher in relative viability: 0.656 for the first, 0.761 for the second.

First: SW 900
Second: SW 1573
The relative viability of the first is lower: 0.372 for the first, 0.643 for the second.

UMC-11 showed a relative viability of 0.45.

Same assay, conditions: first compound 0.253 µM

First: RERF-LC-KJ
Second: SK-MES-1
The relative viability of the first is lower: 0.671 for the first, 1.27 for the second.

Going from SW 900 to SW 1573, the relative viability rises from 0.584 to 0.739.

With UMC-11 the relative viability was 0.367.

Same assay, conditions: first compound 0.8 µM

Going from RERF-LC-KJ to SK-LU-1, the relative viability rises from 0.849 to 0.92.

Compared with SK-MES-1, SW 900 is lower in relative viability: 1.05 for the first, 0.434 for the second.

Going from SW 1573 to UMC-11, the relative viability falls from 1.11 to 0.441.

Same assay, conditions: first compound 2.53 µM

First: RERF-LC-KJ
Second: SK-LU-1
The relative viability of the first is lower: 0.685 for the first, 0.9 for the second.

Going from SK-MES-1 to SW 900, the relative viability falls from 1.03 to 0.671.

First: SW 1573
Second: UMC-11
The relative viability of the first is higher: 0.596 for the first, 0.296 for the second.

Same assay, conditions: first compound 8 µM

First: RERF-LC-KJ
Second: SK-LU-1
The relative viability of the first is lower: 0.43 for the first, 0.694 for the second.

Going from SK-MES-1 to SW 900, the relative viability falls from 0.474 to 0.188.

First: SW 1573
Second: UMC-11
The relative viability of the first is higher: 0.46 for the first, 0.22 for the second.
